The nature of data set [1]: liver toxicity: serum ALT after intraperitoneal injection. Type of data set: in vivo. The following applies: C57BL/6 mice, four-time intraperitoneal injection; EhLPPG 1, 10, 25 and 50 μg/ml; αGalCer 0.1, 1 and 10 μg/ml.
The subject of another data set is human NKT cells. Description: human iNKT cell assay: intracellular cytokine production in whole PBMCs by FACS. The data set is classed as cell-based. The conditions noted are these: human PBMC, 15 h, 1 μg/ml αGalCer or 10 μg/ml purified EhLPPG, FIG. 1.
A further data set relates to Leishmania major. Description: in vitro Leishmania assay: infected bone marrow derived macrophages. The conditions noted are these: for percentage of L. major infected macrophages / parasite load per macrophage: BMM, 48 h.

For the compound `CCCCCCCCCCCCCCCCCCCCCCCCCC(=O)N[C@@H](CO[C@H]1O[C@H](CO)[C@H](O)[C@H](O)[C@H]1O)[C@H](O)[C@H](O)CCCCCCCCCCCCCC` [αGalCer, α-galactosylceramide], the “liver ALT enzyme level in serum” value in data set [1] is “significant increase in the ALT levels”. The “production of tumor necrosis factor (TNF) α and IL-17 in NKT cells” value in the data set on human NKT cells was “led to the production of tumor necrosis factor (TNF) α and IL-17”. In addition, the “CD4+NKT cells positive for IFN-γ and IL-4” value with human NKT cells (αCD28 co-stimulant) was “considerable amounts of CD4+NKT cells positive for IFN-γ and IL-4”. Further, the “percentage of L. major infected macrophages” value is “significantly reduced” with Leishmania major (spleen-derived lymphocytes co-incubated, FIG. 5B) and “significantly reduced” in the data set on Leishmania major (without spleen cells, FIG. 5A). Moreover, the “parasite load per macrophage” value with Leishmania major (with addition of spleen cells, FIG. 5D) is recorded as “a significant reduction”; in the data set with Leishmania major (without spleen cells, FIG. 5C), “significantly reduced the amount of parasites within the macrophages”. In addition, in the data set on Leishmania major (preliminary results, data not shown), the “expression of iNOS” value is on record as “increase in the expression of iNOS”.
